Experimental data as given in patent publication US20130296430A1, “COMPOSITIONS AND METHODS FOR TREATING AUTISM AND AUTISM SPECTRUM DISORDER” (priority 2012, published 2013).
Entries after “also recorded” stand apart in the source; their conditions may differ.

Key:
children with autism = experiment: 12-week double-blind randomized placebo-controlled study of NAC: Aberrant Behavior Checklist (ABC); type: in vivo, human
From the text: The Aberrant Behavior Checklist (ABC) is a standardized scale comprising 58 items for assessing problem behavior in subjects with mental retardation and developmental disabilities (Aman, M. et al., Am J Ment Defic. 89:492-502 (1985)). The checklist is empirically derived from ratings on approximately 1000 subjects, and the items resolve into five subscales: irritability, lethargy/social withdrawal, stereotypic behavior, hyperactivity, and inappropriate speech. High scores indicate more severe behavioral symptoms.
A 12-week, double-blind randomized, placebo-controlled study of NAC in children with autism was conducted in the Autism & Developmental Disabilities Clinic in the Division of Child & Adolescent Psychiatry at Stanford University Medical Center. The recruitment period started in March 2009 and ended in September 2010. Subjects with and without mental retardation were included. After obtaining informed consent, subjects were screened and inclusion and exclusion criteria were assessed. No changes in eligibility criteria were applied throughout the study. This investigation was approved by the institutional review board at Stanford University School of Medicine. An investigational new drug application (IND#100905) was filed with the Food and Drug Administration, and the study was registered in National Institutes of Health at ClinicalTrials.gov (identifier number NCT00627705).
After the screening phase, baseline measures were obtained from subjects continuing to meet inclusion and exclusion criteria. Subjects were then randomized to either placebo or active based on age and gender. As NAC is a nutritional supplement, the quality control is predictably variable and therefore purity is not as stringent as prescription medications. Therefore, in the present study, the stability of the compound was ascertained and the integrity of the active agent was protected by packaging each NAC doses in individual pockets. The active compound and matching placebo were provided by BioAdvantex Pharma, Inc. (Mississauga, Ontario, Canada). […] Subjects randomized to the active drug were initiated at the dose of 900 mg every day for the first 4 weeks, then 900 mg twice daily for 4 weeks and 900 mg three times daily for 4 weeks. (This dose selection was based on previously published studies for other psychiatric conditions (Grant, J. et al., Arch Gen Psychiatry, 66:468-475 (2009); Berk, M. et al., Biol Psychiatry, 64:361-368 (2008); Berk, M. et al., Bio Psychiatry, 64:468-475 (2008)) and the previous experience of our group in studies of children with cystic fibrosis). Alternatively, subjects were initiated at the dose of 900 mg per day, 1,800 mg per day, or 2,700 mg per day of NAC. Alternatively, the subjects were initiated at the dose ranging from 900 mg per day to 2,700 mg per day of NAC.
If a subject could not tolerate a specific dose, s/he would be maintained at the highest tolerated dose. Subjects were evaluated at baseline, week 4, week 8 and week 12. The Aberrant Behavioral Checklist (ABC) (Aman, M. et al., Am J Ment Defic. 89:492-502 (1985)), the Clinical Global Impressions (CGI) (Guy, W., ECDEU Assessment Manual for Psychopharmacology, Rockville, Md., U.S. Department of Health, Education, and Welfare (1976)), and the Dosage Record and Treatment Emergent Symptom Scale (DOTES) (Guy, W., 1976, ECDEU Assessment Manual for Psychopharmacology, Rockville, Md., U.S. Department of Health, Education, and Welfare) were obtained in each visit. Additional secondary measures were obtained at baseline and at week 12 and included the social responsiveness scale (SRS) (Constantino, J. et al., J. Dev Behav Pediatr., 21:2-11 (2000); Constantino, J. et al., J Autism Dev Disord., 33:427-433 (2003)), and the repetitive behavior scale-revised (RBS-R) (Bodfish, J. et al., The Repetitive Behavior Scale: A test manual (1998)). […]

[1] = cited from earlier work
[2] = Baseline (before treatment), NAC group n = 15
[3] = all randomized participants, p>0.100
[4] = standardized mean difference NAC vs placebo at Week 12

CC(=O)N[C@@H](CS)C(=O)O [NAC, N-acetylcysteine]
ABC hyperactivity, Mean (SD) (children with autism; [2]): 23.4 (9.0)
ABC inappropriate speech, Mean (SD) (children with autism; [2]): 4.9 (3.2)
ABC irritability, Mean (SD) (children with autism; [2]): 16.9 (7.9)
ABC lethargy, Mean (SD) (children with autism; [2]): 15.2 (9.5)
ABC stereotypy, Mean (SD) (children with autism; [2]): 9.1 (5.5)
ABC total, Mean (SD) (children with autism; [2]): 69.7 (24.7)
ABC hyperactivity, Mean (SD) (children with autism; Week 12, NAC n = 14): 12.4 (11.4)
ABC inappropriate speech, Mean (SD) (children with autism; Week 12, NAC n = 14): 2.5 (2.6)
ABC irritability, Mean (SD) (children with autism; Week 12, NAC n = 14): 7.2 (5.7)
ABC lethargy, Mean (SD) (children with autism; Week 12, NAC n = 14): 11.0 (9.4)
ABC stereotypy, Mean (SD) (children with autism; Week 12, NAC n = 14): 5.6 (5.7)
ABC total, Mean (SD) (children with autism; Week 12, NAC n = 14, 900 mg daily 4 wk, twice daily 4 wk, three times daily 4 wk, high scores = more severe): 38.7 (24.1)
ABC-Irritability, treatment effect (Group x Time) (children with autism; all randomized participants, NAC vs placebo, effects beginning in week 4, continuing through week 8 and 12, p<0.001): significantly improved irritability; also recorded: significant behavioral improvements
ABC-Total, treatment effect (Group x Time) (children with autism; all randomized participants, NAC vs placebo, from week 4 through week 12, p=0.010): significant effects; also recorded: significant behavioral improvements
ABC-Stereotypy, treatment effect (children with autism; all randomized participants, NAC vs placebo, p=0.096): marginally significant improvement
ABC hyperactivity subscale, treatment effect (children with autism; [3]): no significant treatment effects
ABC inappropriate speech subscale, treatment effect (children with autism; [3]): no significant treatment effects
ABC lethargy subscale, treatment effect (children with autism; [3]): no significant treatment effects
ABC inappropriate speech, Cohen's d (children with autism; [4]): .35
ABC irritability, Cohen's d (children with autism; [4]): .72
ABC lethargy, Cohen's d (children with autism; [4]): −.32
ABC stereotypy, Cohen's d (children with autism; [4]): .37
ABC total, Cohen's d (children with autism; [4]): .63
solubility relative to cystine ([1]; compared with the stable cysteine disulfide, cystine): much more soluble
stability relative to cysteine ([1]; more stable than cysteine): about 10 times
